# Where two headings read alike, the source gives them in different places.
# Legend:
# [1] = test system: S. aureus SA-1199 (wild type); assay: MIC determination against wild-type SA-1199; type: cell-based; conditions: Staphylococcus aureus, compound alone
# From the text: (§1) This finding aligns with their mechanism of action, which involves the inhibition of NorA, which is only basally expressed in the wild‐type SA‐1199 strain.
# [2] = test system: Staphylococcus aureus SA-1199B; assay: MIC determination (broth microdilution) against SA-1199B; type: cell-based; conditions: SA1199B
# From the text: (§2) In this study, the S. aureus strains SA‐1199B (overexpressing norA) and its isogenic parent SA‐1199 (wild type), the pair SA‐K1902 (norA‐depleted) and SA‐K2378 (complemented with a pCU1 plasmid harboring the norA promoting and coding region from SA‐1199B), were used to test EPI activity as described in a previous study. Furthermore, the S. aureus ATCC 29213 was used as the reference strain in MIC determination experiments.
# [3] = test system: S. aureus SA-K2378 (norA ++); assay: Checkerboard assay EPI/CPX against SA-K2378; type: cell-based, Staphylococcus aureus
# Description: (§3) Conversely, interesting results were obtained against SA‐K2378, which overexpresses the norA gene (Table 2). […] This corroborates the hypothesis that their activity is strictly related to NorA EP inhibition.
# (§4) Checkerboard assays were carried out using SA‐K1902 and SA‐K2378 strains according to standard procedures.
# [4] = test system: Staphylococcus aureus SA-K2378 biofilm; type: cell-based; conditions: EPI at 0.2 µg/mL combined with CPX, SA-K2378
# From the text: The formation of biofilms is a significant contributor to the development of AMR [1, 26, 27]. This is due to the fact that biofilms provide a protective environment for bacteria, thereby rendering them more resilient to the effects of common antibacterial agents. Over the years, several investigations have been conducted to study the role of EPs in the various stages of microbial biofilm formation. However, a definitive answer regarding the potential role of EPs in this microbial pathway remains elusive. While some studies have reported a negative effect of certain EPs on biofilm formation, others have highlighted the promising role of EPIs in limiting biofilm formation and enhancing the efficacy of antibiotics under biofilm conditions.
# The biofilm production by SA‐K1902 and SA‐K2378 strains was analyzed in flat 96‐well microtiter plates as previously described, with some modifications. […] The microplates were incubated at 37°C for 24 h in static conditions. After incubation, the biofilms were washed three times with distilled water, dried at 60°C for 1 h, and stained with 0,1% crystal violet for 10 min. After staining, the crystal violet was removed and the wells were washed three times with water, dried at 37°C for 30 min, and the bound crystal violet was solubilized with 96% ethanol in shaking conditions. At the end of the destaining, the absorbance (570 nm) of the solutions in each well was measured using the FLUOstar Omega plate reader (BMG‐LABTECH, Germany) to quantify the biofilm produced in each condition compared with the control (biofilm produced by the strain without any compound/antibiotic). Biofilm assays were performed in triplicate for each condition.
# [5] = test system: S. aureus SA-1199 (wild type); assay: Synergistic assay with CPX against wild-type SA-1199; type: cell-based, Staphylococcus aureus; conditions: EPI at 3.13 µg/mL with CPX
# From the text: as §1
# [6] = test system: Staphylococcus aureus SA-1199B; type: cell-based
# From the text: For purposes of comparison, compound 1 was included as a reference.
# [7] = test system: S. aureus SA-K1902 (norA-); assay: Checkerboard assay EPI/CPX against SA-K1902; type: cell-based, Staphylococcus aureus
# Description: as §4
# [8] = biological target: T1, S. aureus NorA efflux pump (SA-1199B strain, overexpresses the norA gene) (Staphylococcus aureus, UniProt P0A0J7); assay: EtBr efflux inhibition assay; type: cell-based
# T1 construct: endogenous in cells; host or cells: S. aureus SA-1199B (overexpresses norA; isogenic parent SA-1199)
# T1 sequence (P0A0J7 whole entry): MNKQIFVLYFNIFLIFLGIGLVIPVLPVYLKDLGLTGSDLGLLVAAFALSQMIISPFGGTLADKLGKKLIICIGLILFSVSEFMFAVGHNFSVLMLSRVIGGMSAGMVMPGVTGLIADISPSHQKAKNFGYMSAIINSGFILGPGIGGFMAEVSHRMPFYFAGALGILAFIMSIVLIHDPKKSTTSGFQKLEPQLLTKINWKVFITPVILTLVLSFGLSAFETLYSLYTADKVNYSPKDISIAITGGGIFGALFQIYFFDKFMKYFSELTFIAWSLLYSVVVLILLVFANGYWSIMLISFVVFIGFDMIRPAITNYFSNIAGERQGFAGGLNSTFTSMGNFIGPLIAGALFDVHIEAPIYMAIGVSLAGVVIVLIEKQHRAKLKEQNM
# Description: EtBr efflux inhibition assays were conducted using the S. aureus SA‐1199B strain, which overexpresses the norA gene and has an A116E GrlA substitution. Each compound was tested at 50 µM (see Figure 2). The starting hit compound 1 was used as the internal standard for comparison with the previously reported data.
# The cells were grown overnight in cation‐supplemented Mueller–Hinton broth (CAMHB) without any additives at 35°C. The organisms were subsequently diluted into CAMHB to obtain an optical density at 600 nm (OD600) of 0.7–0.8. Subsequently, the cells were pelleted and resuspended at an OD600 of 0.8 in 0.5 mL aliquots of CAMHB containing EtBr and carbonyl cyanide m‐chlorophenylhydrazone (CCCP) to “load” the cells with EtBr (final concentrations of 25 μM for EtBr and 100 μM for CCCP). Following 20 min of incubation at room temperature, the cells were pelleted and resuspended in 1 mL of fresh CAMHB. Immediately thereafter, 200 μL aliquots were transferred into the wells of white 96‐well plates, which either lacked or contained 50 or 10 μM of each test compound. Fluorescence was monitored continuously using a microplate reader (Infinite M200 Pro, TECAN) at excitation and emission wavelengths of 485 and 645 nm, respectively, for a period of 5 min. The experiments were conducted in triplicate, with two technical replicates per biological replicate. The efflux activity of the SA‐1199B strain was expressed as a percentage of fluorescence decrease over a 5‐min time course. The inhibition of this efflux by the test compounds was determined using the following equation: ([efflux in the absence] ‐ [efflux in the presence of test [compound])/[efflux in the absence of test compound] × 100, which yielded the percent efflux inhibition observed.
# ^a Experiments were performed in triplicate with two technical replicates per biological replicate. Efflux activity of SA-1199B was expressed as percent fluorescence decrease over a 5 min time course. Inhibition of this efflux by test compounds was determined using the equation [efflux in the absence] − [efflux in the presence of test [compound]/[efflux in the absence of test compound] × 100, giving the percent efflux inhibition observed.
# [9] = test system: S. aureus SA-K1902 (norA-); assay: MIC evaluation against SA-K1902; type: cell-based, Staphylococcus aureus; conditions: Staphylococcus aureus
# From the text: as §3, §2
# [10] = test system: S. aureus SA-K2378 (norA ++); assay: MIC evaluation against SA-K2378; type: cell-based, Staphylococcus aureus; conditions: Staphylococcus aureus
# From the text: as §3, §2
compound,measurement,setting,value
"CN1c2c(-c3ccc(F)cc3)nn(C)c2-c2ccc(OCCN3CCOCC3)cc2S1(=O)=O [Compound 19, 3‐(4‐Fluorophenyl)‐1,4‐dimethyl‐7‐(2‐morpholin‐4‐ylethoxy)‐1,4‐dihydropyrazolo[4,3‐c][1,2]benzothiazine 5,5‐dioxide]",MIC,[1],> 50 µg/mL
same,MIC,[2],> 50 µg/mL
same,CPX MIC,[3]; EPI at 0.2 µg/mL,0.3 µg/mL
same,N° CPX MIC reduction,[3]; EPI at 0.2 µg/mL,4
same,CPX MIC,[3]; EPI at 0.4 µg/mL,0.3 µg/mL
same,N° CPX MIC reduction,[3]; EPI at 0.4 µg/mL,4
same,CPX MIC,[3]; EPI at 0.8 µg/mL,0.3 µg/mL
same,N° CPX MIC reduction,[3]; EPI at 0.8 µg/mL,4
same,CPX MIC,[3]; EPI at 1.6 µg/mL,0.3 µg/mL
same,N° CPX MIC reduction,[3]; EPI at 1.6 µg/mL,4
same,CPX MIC,[3]; EPI at 3.13 µg/mL,0.3 µg/mL
same,N° CPX MIC reduction,[3]; EPI at 3.13 µg/mL,4
same,CPX MIC,[3]; EPI at 6.25 µg/mL,0.16 µg/mL
same,N° CPX MIC reduction,[3]; EPI at 6.25 µg/mL,8
same,effect on biofilm formation in combination with CPX,[4],no positive effects
same,synergistic effect with CPX,[5],did not show any synergistic effect
same,N° fold CPX MIC reduction,[6]; EPI at 3.12 µg/mL,2 fold
same,N° fold CPX MIC reduction,[6]; EPI at 12.5 µg/mL,4 fold
same,CPX MIC,[7]; EPI at 0.2 µg/mL,0.08 µg/mL
same,N° CPX MIC reduction,[7]; EPI at 0.2 µg/mL,2
same,CPX MIC,[7]; EPI at 0.4 µg/mL,0.08 µg/mL
same,N° CPX MIC reduction,[7]; EPI at 0.4 µg/mL,2
same,CPX MIC,[7]; EPI at 0.8 µg/mL,0.08 µg/mL
same,N° CPX MIC reduction,[7]; EPI at 0.8 µg/mL,2
same,CPX MIC,[7]; EPI at 1.6 µg/mL,0.08 µg/mL
same,N° CPX MIC reduction,[7]; EPI at 1.6 µg/mL,2
same,CPX MIC,[7]; EPI at 3.13 µg/mL,0.08 µg/mL
same,N° CPX MIC reduction,[7]; EPI at 3.13 µg/mL,2
same,CPX MIC,[7]; EPI at 6.25 µg/mL,0.08 µg/mL
same,N° CPX MIC reduction,[7]; EPI at 6.25 µg/mL,2
same,CPX MIC,[7]; EPI at 12.5 µg/mL,0.15 µg/mL
same,N° CPX MIC reduction,[7]; EPI at 12.5 µg/mL,0
same,inhibition at 10 µM,"[8]; read-out: EtBr efflux inhibition (%), compound at 10 µM, SA-1199B",34%
same,inhibition at 50 µM,"[8]; read-out: EtBr efflux inhibition (%), compound at 50 µM, SA-1199B",> 70%
same,MIC,[9],> 50 µg/mL
same,MIC,[10],25 µg/mL

# Source: publication PMC12089509, “NorA Efflux Pump Inhibitors: Expanding SAR Knowledge of Pyrazolo[4,3‐c][1,2]benzothiazine 5,5‐Dioxide Derivatives” (Archiv Der Pharmazie, 2025)
